Data published in patent publication US20150105252A1, “SUBSTITUTED PYRAZOLES AS HERBICIDES” (E I DU PONT DE NEMOURS AND COMPANY, priority 2013, published 2015).

Experiments:
Surinam grass [1] = assay: Test C postemergence; assay type: in vivo, Brachiaria decumbens; details: for Surinam Grass plant response rating: 62 g ai/ha, scale 0 to 100
Description: (§1) Seeds of plant species selected from blackgrass (Alopecurus myosuroides), ryegrass, Italian (Italian ryegrass, Lolium multiflorum), wheat (winter wheat, Triticum aestivum), galium (catchweed bedstraw, Galium aparine), corn (Zea mays), crabgrass, large (large crabgrass, Digitaria sanguinalis), foxtail, giant (giant foxtail, Setaria faberii), johnsongrass (Sorghum halepense), lambsquarters (Chenopodium album), morningglory (Ipomoea coccinea), nutsedge, yellow (yellow nutsedge, Cyperus esculentus), pigweed (redroot pigweed, Amaranthus retroflexus), ragweed (common ragweed, Ambrosia elation), soybean (Glycine max), barnyardgrass (Echinochloa crus-galli), oilseed rape (Brassica napus), waterhemp (common waterhemp, Amaranthus rudis), oat, wild (wild oat, Avena fatua), kochia (Kochia scoparia), Surinam grass (Brachiaria decumbens), foxtail, green (green foxtail, Setaria viridis), goosegrass (Eleusine indica), bromegrass, downy (downy bromegrass, Bromus tectorum), nightshade (eastern black nightshade, Solanum ptycanthum), cocklebur (common cocklebur, Xanthium strumarium), cupgrass, woolly (woolly cupgrass, Eriochloa villosa), bermudagrass (Cynodon dactylon), sunflower, (common oilseed sunflower, Helianthus annuus), Russian thistle (Salsola kali), and velvetleaf (Abutilon theophrasti) were planted into a blend of loam soil and sand and treated preemergence with test chemicals formulated in a non-phytotoxic solvent mixture which included a surfactant.
(§2) At the same time, plants selected from these crop and weed species and also chickweed (common chickweed, Stellaria media), canarygrass (littleseed canarygrass, Phalaris minor), and deadnettle (henbit deadnettle, Lamium amplexicaule), were planted in pots containing Redi-Earth® planting medium (Scotts Company, 14111 Scottslawn Road, Marysville, Ohio 43041) comprising spaghnum peat moss, vermiculite, wetting agent and starter nutrients and treated with postemergence applications of test chemicals formulated in the same manner. Plants ranged in height from 2 to 18 cm (1- to 4-leaf stage) for postemergence treatments. Treated plants and controls were maintained in a greenhouse for 13 to 15 days, after which time all species were compared to controls and visually evaluated. Plant response ratings, summarized in Table C, are based on a scale of 0 to 100 where 0 is no effect and 100 is complete control. A dash (-) response means no test result.

windgrass = assay: Test C postemergence; assay type: in vivo, Apera spica-venti; details: 250 g ai/ha, scale 0 to 100 (0 no effect, 100 complete control)
bromegrass, downy = assay: Test C preemergence; assay type: in vivo, Bromus tectorum; details: for Plant response rating (scale of 0 to 100), Bromegrass, Downy: Preemergence, 250 g ai/ha; for Bromegrass, Downy plant response rating / Plant response rating, Bromegrass, Downy: preemergence; for Plant response rating, Bromegrass, Downy: 62 g ai/ha, scale 0 to 100, 0 = no effect, 100 = complete control
Description: as §1, §2

bermudagrass = assay: Test C preemergence; assay type: in vivo, Cynodon dactylon; details: for Plant response rating (scale of 0 to 100), Bermudagrass: Preemergence, 250 g ai/ha; for Bermudagrass plant response rating / Plant response rating, Bermudagrass: preemergence; for Plant response rating, Bermudagrass: 62 g ai/ha, scale 0 to 100, 0 = no effect, 100 = complete control
Description: as §1, §2

Surinam grass [2] = assay: Test F preemergence; assay type: in vivo, Brachiaria decumbens
Description: (§3) Seeds of plant species selected from corn (Zea mays), soybean (Glycine max), velvetleaf (Abutilon theophrasti), lambsquarters (Chenopodium album), wild poinsettia (Euphorbia heterophylla), pigweed, palmer (palmer pigweed, Amaranthus palmeri), common waterhemp (Amaranthus rudis), surinam grass (Brachiaria decumbens), large crabgrass (Digitaria sanguinalis), crabgrass, Brazil (Brazilian crabgrass, Digitaria horizontalis), fall panicum (Panicum dichotomiflorum), giant foxtail (Setaria faberii), green foxtail (Setaria viridis), goosegrass (Eleusine indica), johnsongrass (Sorghum halepense), common ragweed (Ambrosia elation), barnyardgrass (Echinochloa crus-galli), southern sandbur (Cenchrus echinatus), arrowleaf sida (Sida rhombifolia), Italian ryegrass (Lolium multiflorum), dayflower, VA (Virginia (VA) dayflower, Commelina virginica), field bindweed (Convolvulus arvensis), cocklebur (common cocklebur, Xanthium strumarium), morningglory (Ipomoea coccinea), nightshade (eastern black nightshade, Solanum ptycanthum), kochia (Kochia scoparia), yellow nutsedge (Cyperus esculentus), and hairy beggarticks (Bidens pilosa), were planted into a silt loam soil and treated preemergence with test chemicals formulated in a non-phytotoxic solvent mixture which included a surfactant.
(§4) At the same time, plants from these crop and weed species and also horseweed (Canada horseweed, Conyza canadensis), smartweed (ladysthumb smartweed, Polygonum persicaria), waterhemp_RES1, (ALS & Triazine resistant common waterhemp, Amaranthus rudis), and waterhemp_RES2, (ALS & HPPD resistant common waterhemp, Amaranthus rudis) were treated with postemergence applications of test chemicals formulated in the same manner. Plants ranged in height from 2 to 18 cm for postemergence treatments (1- to 4-leaf stage). Treated plants and controls were maintained in a greenhouse for 14 to 21 days, after which time all species were compared to controls and visually evaluated. Plant response ratings, summarized in Table F, are based on a scale of 0 to 100 where 0 is no effect and 100 is complete control. A dash (-) response means no test result.

nightshade = assay: Test F preemergence; assay type: in vivo, Solanum ptycanthum
Description: as §3, §4

common ragweed = assay: Test F preemergence; assay type: in vivo, Ambrosia elation
Description: as §3, §4

soybean = assay: Test F preemergence; assay type: in vivo, Glycine max
Description: as §3, §4

[3] = 125 g ai/ha, scale 0 to 100, 0 no effect, 100 complete control
[4] = 250 g ai/ha, scale 0 to 100 (0 no effect, 100 complete control)
[5] = 31 g ai/ha, scale 0 to 100 (0 no effect, 100 complete control), 13 to 15 days
[6] = 125 g ai/ha, scale 0 to 100, 0 is no effect, 100 is complete control
[7] = Preemergence, 31 g ai/ha, scale 0 to 100
[8] = Preemergence, 62 g ai/ha, scale 0 to 100
[9] = Preemergence, 125 g ai/ha, scale 0 to 100
[10] = preemergence, 8 g ai/ha, scale 0 to 100, 100 is complete control
[11] = preemergence, 16 g ai/ha, scale 0 to 100, 100 is complete control

Row | Structure (SMILES) | Surinam Grass plant response rating (Surinam grass [1]) | Plant response rating, Surinam Grass (Surinam grass [1]; [3]) | Plant response rating, Surinam Grass (Surinam grass [1]; [4]) | Plant response rating, Windgrass (windgrass) | Plant response rating (scale of 0 to 100), Bromegrass, Downy (bromegrass, downy) | Bromegrass, Downy plant response rating (bromegrass, downy; [5]) | Plant response rating, Bromegrass, Downy (bromegrass, downy; 13 to 15 days) | Bromegrass, Downy plant response rating (bromegrass, downy; [6]) | Plant response rating (scale of 0 to 100), Bermudagrass (bermudagrass) | Bermudagrass plant response rating (bermudagrass; [5]) | Plant response rating, Bermudagrass (bermudagrass; 13 to 15 days) | Bermudagrass plant response rating (bermudagrass; [6]) | further results
1 | CCc1cc(C(=O)NCC(F)(F)F)nn1Cc1cccc(OC(F)(F)F)c1 [Compound 20] | 5 | 10 | 10 | 45 | – | – | – | – | – | – | – | – | –
2 | CCCNC(=O)c1cc(CC)n(Cc2cccc(OC(F)(F)F)c2)n1 [Compound 27] | 5 | 10 | 10 | 45 | – | – | – | – | – | – | – | – | –
3 | CCc1cc(C(=O)NOC(C)C)nn1Cc1cccc(OC(F)(F)F)c1 [Compound 70] | 10 | 20 | 30 | 50 | 80 | 20 | 35 | 40 | 100 | 98 | 98 | 100 | –
4 | CCONC(=O)c1cc(CC)n(Cc2cccc(OC(F)(F)F)c2)n1 [Compound 72] | 10 | 10 | 15 | 30 | 90 | 5 | 45 | 80 | 100 | 85 | 98 | 98 | –
5 | Cc1cc(C(=O)NCC(F)(F)F)nn1Cc1ccnc(C(F)(F)F)c1 [Compound 74] | 10 | 15 | 25 | 5 | 95 | 0 | 5 | 50 | 98 | 50 | 90 | 98 | –
6 | CCc1cc(-c2ccc(C(F)(F)F)cc2)nn1Cc1ccnc(C(F)(F)F)c1 [Compound 110] | – | – | – | – | – | – | – | – | – | – | – | – | Plant response rating, Surinam Grass (Surinam grass [2]; [7]): 5; Plant response rating, Surinam Grass (Surinam grass [2]; [8]): 5; Plant response rating, Surinam Grass (Surinam grass [2]; [9]): 10; Plant response rating, Surinam Grass (Surinam grass [2]; [10]): 0; Plant response rating, Surinam Grass (Surinam grass [2]; [11]): 0; Plant response rating, Nightshade (nightshade; [7]): 80; Plant response rating, Nightshade (nightshade; [8]): 85; Plant response rating, Nightshade (nightshade; [9]): 95; Plant response rating, Nightshade (nightshade; [10]): 50; Plant response rating, Nightshade (nightshade; [11]): 65; Plant response rating, Common Ragweed (common ragweed; [7]): 25; Plant response rating, Common Ragweed (common ragweed; [8]): 80; Plant response rating, Common Ragweed (common ragweed; [9]): 90; Plant response rating, Common Ragweed (common ragweed; [10]): 0; Plant response rating, Common Ragweed (common ragweed; [11]): 0; Plant response rating, Soybean (soybean; [7]): 15; Plant response rating, Soybean (soybean; [8]): 0; Plant response rating, Soybean (soybean; [10]): 0
